Consider six molecules from patent US7642245B2, “Antibacterial compounds having a (pyrrole carboxamide)-(benzamide)-(imidazole carboxamide) motif” (Oscient Pharmaceuticals Corporation, priority 2002, dated 2010).

Some results are limits rather than exact numbers.

The test system of one assay is C. albicans ATCC 38247. The experiment in a line: MIC, antifungal assay. Format: cell-based, Candida albicans. The note with it: F = C. albicans ATCC 38247. The text has this:
(§1) In vitro biological activity data were collected for a variety of microorganisms, including Staphylococcus aureus (ATCC 27660, a methicillin resistant strain (MRSA); ATCC 13709, a methicillin sensitive strain (MSSA)), Enterococcus faecalis (ATCC 29212), Bacillus cereus (ATCC 11778), Streptococcus pneumoniae (ATCC 49619), Candida albicans (ATCC 38247), Escherichia coli (ATCC 25922), and Moraxella (now Branhamella) catarrhalis (ATCC 25238).
(§2) The minimal inhibition concentration (MIC) of these compounds was determined using the National Committee for Clinical Laboratory Standards (NCCLS) broth microdilution assay in microtiter plates, as set forth in: (1) the guidelines of the National Committee for Clinical Laboratory Standards (NCCLS) Document M7-A4 (NCCLS, 1997); (2) the guidelines of the National Committee for Clinical Laboratory Standards (NCCLS) Document M11-A4 (NCCLS, 1997); and (3) the guidelines and reference method of the National Committee for Clinical Laboratory Standards (NCCLS) Document M27-T (NCCLS, 1995). For antifungal assays, the method recommended in Murray, P R., 1995 Manual of Clinical Microbiology (ASM Press, Washington, DC.), was employed.

For another assay, the system named is E. coli ATCC 25922. Put plainly: MIC, NCCLS broth microdilution. The note with it: G = E. coli ATCC 25922. It counts as cell-based, Escherichia coli.
Text: as §1, §2
(Broth dilution looks for growth in wells or tubes with falling amounts of substance.)

The test system of the next assay is B. cereus ATCC 11778. The experiment in a line: MIC, NCCLS broth microdilution. Conditions: D = B. cereus ATCC 11778. It counts as cell-based, Bacillus cereus.
Text: as §1, §2

In a further assay the test system is S. aureus ATCC 13709. The experiment in a line: MIC, NCCLS broth microdilution. It counts as cell-based, Staphylococcus aureus. Conditions: A = S. aureus ATCC 13709 (MSSA).
Text: as §1, §2

The next assay relates to S. aureus ATCC 27660. Put plainly: MIC, NCCLS broth microdilution. Format: cell-based, Staphylococcus aureus. Conditions: B = S. aureus ATCC 27660 (MRSA).
Text: as §1, §2

The next assay has as its system S. pneumoniae ATCC 49619. The experiment in a line: MIC, NCCLS broth microdilution. The note with it: E = S. pneumoniae ATCC 49619. Format: cell-based, Streptococcus pneumoniae.
Text: as §1, §2

Assay [1] relates to M. catarrhalis (ATCC 25238). Put plainly: MIC, NCCLS broth microdilution. Format: cell-based, Moraxella (now Branhamella) catarrhalis. Conditions: H = M. catarrhalis (ATCC 25238).
Text: as §1, §2

Another assay concerns E. faecalis ATCC 29212. The experiment in a line: MIC, NCCLS broth microdilution. It counts as cell-based, Enterococcus faecalis. The note with it: C = E. faecalis ATCC 29212.
Text: as §1, §2

With `Cn1cc(NC(=O)c2cc3ccccc3cn2)cc1C(=O)Nc1ccc(C(=O)Nc2cn(C)c(C(=O)NCCN3CCC(F)CC3)n2)cc1` [Compound A-41], the “Minimum Inhibitory Concentration (MIC)” value with C. albicans ATCC 38247 is greater than 32 µg/mL; in the assay with E. coli ATCC 25922 it was greater than 32 µg/mL; with B. cereus ATCC 11778, “+++ (MIC ≦ 4 μg/mL)”; in the assay with S. aureus ATCC 13709 it was “+++ (MIC ≦ 4 μg/mL)”; in the assay with S. aureus ATCC 27660, “+++ (MIC ≦ 4 μg/mL)”; in the assay on S. pneumoniae ATCC 49619, “+++ (MIC ≦ 4 μg/mL)”. The “Minimum Inhibitory Concentration (MIC)” value (in assay [1]; in the assay with E. faecalis ATCC 29212) was “+++ (MIC ≦ 4 μg/mL)” each time.

`Cn1cc(NC(=O)c2cc3ccccc3cn2)cc1C(=O)Nc1ccc(C(=O)Nc2cn(C)c(C(=O)NCCN3CCC(O)C3)n2)cc1` (racemic) [Compound A-71]: the “Minimum Inhibitory Concentration (MIC)” value is greater than 32 µg/mL with C. albicans ATCC 38247; “+++ (MIC ≦ 4 μg/mL)” in the assay with E. coli ATCC 25922; “+++ (MIC ≦ 4 μg/mL)” in the assay on B. cereus ATCC 11778; “+++ (MIC ≦ 4 μg/mL)” with S. aureus ATCC 13709; “+++ (MIC ≦ 4 μg/mL)” in the assay with S. aureus ATCC 27660; “+++ (MIC ≦ 4 μg/mL)” in the assay with S. pneumoniae ATCC 49619. For the same molecule, the “Minimum Inhibitory Concentration (MIC)” value (in assay [1]; with E. faecalis ATCC 29212) was “+++ (MIC ≦ 4 μg/mL)” throughout.

With `CC(C)C(CO)NCCNC(=O)c1nc(NC(=O)c2ccc(NC(=O)c3cc(NC(=O)c4cc5ccccc5cn4)cn3C)cc2)cn1C` (stereo not drawn) [Compound A-46], the “Minimum Inhibitory Concentration (MIC)” value with C. albicans ATCC 38247 is greater than 32 µg/mL; in the assay on E. coli ATCC 25922, greater than 32 µg/mL; with B. cereus ATCC 11778, “+++ (MIC ≦ 4 μg/mL)”; in the assay with S. aureus ATCC 13709, “+++ (MIC ≦ 4 μg/mL)”; with S. aureus ATCC 27660, “+++ (MIC ≦ 4 μg/mL)”; in the assay with S. pneumoniae ATCC 49619, “+++ (MIC ≦ 4 μg/mL)”. Also, the “Minimum Inhibitory Concentration (MIC)” value in assay [1] is reported as “++ (4 < MIC < 12 μg/mL)”; in the assay with E. faecalis ATCC 29212, “+++ (MIC ≦ 4 μg/mL)”.

For `COC1CCN(CCNC(=O)c2nc(NC(=O)c3ccc(NC(=O)c4cc(NC(=O)c5cc6ccccc6cn5)cn4C)cc3)cn2C)CC1` [Compound A-20], the “Minimum Inhibitory Concentration (MIC)” value in the assay with C. albicans ATCC 38247 is listed as “+ (12 ≦ MIC ≦ 32 μg/mL)”; with E. coli ATCC 25922, “+++ (MIC ≦ 4 μg/mL)”; with B. cereus ATCC 11778 it was “+++ (MIC ≦ 4 μg/mL)”; in the assay with S. aureus ATCC 13709, “+++ (MIC ≦ 4 μg/mL)”; in the assay on S. aureus ATCC 27660, “+++ (MIC ≦ 4 μg/mL)”; in the assay with S. pneumoniae ATCC 49619 it was “+++ (MIC ≦ 4 μg/mL)”. In addition, the “Minimum Inhibitory Concentration (MIC)” value (in assay [1]; with E. faecalis ATCC 29212) was “+++ (MIC ≦ 4 μg/mL)” each time.

With `CN1CCN(CCNC(=O)c2nc(NC(=O)c3ccc(NC(=O)c4cc(NC(=O)c5cc6ccccc6cn5)cn4C)cc3)cn2C)CC1` [Compound A-12], the “Minimum Inhibitory Concentration (MIC)” value with C. albicans ATCC 38247 is greater than 32 µg/mL; in the assay with E. coli ATCC 25922, greater than 32 µg/mL; with B. cereus ATCC 11778, “+++ (MIC ≦ 4 μg/mL)”; in the assay on S. aureus ATCC 13709, “+++ (MIC ≦ 4 μg/mL)”; with S. aureus ATCC 27660, “+++ (MIC ≦ 4 μg/mL)”; with S. pneumoniae ATCC 49619, “+++ (MIC ≦ 4 μg/mL)”. Also, the “Minimum Inhibitory Concentration (MIC)” value (in assay [1]; in the assay with E. faecalis ATCC 29212) was “+++ (MIC ≦ 4 μg/mL)” throughout.

For the molecule `Cn1cc(NC(=O)c2cc3ccccc3cn2)cc1C(=O)Nc1ccc(C(=O)Nc2cn(C)c(C(=O)NCCNC(CO)(CO)CO)n2)cc1` [Compound A-49], the “Minimum Inhibitory Concentration (MIC)” value was greater than 32 µg/mL in the assay on C. albicans ATCC 38247; greater than 32 µg/mL in the assay with E. coli ATCC 25922; greater than 32 µg/mL in the assay on B. cereus ATCC 11778; “+++ (MIC ≦ 4 μg/mL)” in the assay on S. aureus ATCC 13709; “+++ (MIC ≦ 4 μg/mL)” in the assay on S. aureus ATCC 27660; “+++ (MIC ≦ 4 μg/mL)” with S. pneumoniae ATCC 49619. Further, the “Minimum Inhibitory Concentration (MIC)” value in assay [1] is greater than 32 µg/mL; with E. faecalis ATCC 29212, “+ (12 ≦ MIC ≦ 32 μg/mL)”.
